Work on `O=Cc1cc(Br)cc(Br)c1O` yielded a pKa of 5.3.
For `N#Cc1ccc2[nH]cc(-c3ccnc(N)n3)c2c1`, the pKa was 5.3.
With `Cc1cc(C)nc(N2CCC3(CCCN(Cc4ccccc4-c4nc(C)no4)C3=O)CC2)n1` the pKa was 4.8.
With `c1ccc(-c2nc3n(c2-c2ccccc2)CCS3)cc1` the pKa was 4.8.
Work on `COc1ccc(N2CCOCC2)c2sc(NC(=O)N3CCC(C)(O)CC3)nc12` yielded a pKa of 9.4.
`O=c1[nH]c2cc(-c3ccc(F)cc3)ccc2cc1[O-]` showed a pKa of 8.1.
`O=C1N(Cc2c[nH]c3ccccc23)CCCC12CCN(c1ncccn1)CC2` showed a pKa of 3.8.
Work on `COc1ccc(C2=C([O-])c3ccccc3C2=O)cc1` yielded a pKa of 4.1.
For `C[C@H](C#Cc1ccc(Cc2ccc(F)cc2)s1)N(O)C(N)=O`, the pKa was 10.4.
In the case of `O=c1[nH]c2cc(C(F)(F)F)ccc2n1Cc1cc(Cl)ccc1O`, the pKa is reported as 9.75.
Compound `O=c1[nH]c2ccc(-c3ccc(F)cc3)cc2cc1[O-]` has a pKa of 8.2.
`CCS(=O)(=O)c1ccc(CC(=O)Nc2nc(-c3ccccc3)c(C(=O)c3ccccc3)s2)cc1` showed a pKa of 7.9.
Compound `O=C([O-])c1ccccc1Nc1cc(F)cc(C(F)(F)F)c1` has a pKa of 3.9.
With `Cc1cc(C)nc(N2CCC3(CCCN(Cc4nn(C)nc4-c4ccccc4)C3=O)CC2)n1` the pKa was 4.7.
For `COCc1nc2ccccc2n1Cc1ccc(C(C)(C)C)cc1`, the pKa was 4.2.
With `Cc1ccc(C)n1-c1ccc(C(=O)[O-])c(O)c1` the pKa was 2.3.
In the case of `COc1cccc2[nH]cc(-c3ccnc(N)n3)c12`, the pKa is reported as 5.52.
`CCc1cc(Br)ccc1S(=O)(=O)NCc1ccccc1` gave a pKa of 10.6.
For `O=C([O-])CSc1ncnc2cc(-c3ccc(Br)cc3)sc12`, the pKa was 3.5.
Work on `COC(=O)Cn1c(C[NH+]2CCC(Cc3ccccc3)CC2)nc2c1c(=O)n(C)c(=O)n2C` yielded a pKa of 6.
Work on `C=CC(=O)Nc1cccc(Nc2nc(Nc3ccc(OCCOC)cc3)ncc2F)c1` yielded a pKa of 4.8.
With `COc1ccccc1S(=O)(=O)Nc1ccc2c(c1)CN(C)C(=O)N2` the pKa was 8.65.
Work on `Cc1nc(C#Cc2ccnc(Cl)c2)c(C)n1-c1ccc(F)cc1` yielded a pKa of 4.35.
In the case of `COc1ccc(Br)c(C=O)c1O`, the pKa is reported as 7.5.
Work on `Cc1csc2ccc3[nH]c4c(c3c12)C[NH+](C)CC4` yielded a pKa of 8.6.
`COc1ccc(NS(=O)(=O)c2ccc(-n3cccn3)cc2)cc1OC` showed a pKa of 8.3.
With `Cc1ccc(C)n1-c1ccc(SCC(=O)[O-])cc1` the pKa was 3.5.
With `CC(=O)Nc1ccc(Nc2ncnc3c2c(-c2ccccc2)cn3-c2ccccc2)cc1` the pKa was 3.9.
Work on `O=C(Nc1cccc(Cl)c1)c1ccc(Cl)cc1O` yielded a pKa of 6.3.
`Cn1cc(C(=O)[O-])c(=O)c2ccccc21` gave a pKa of 6.5.
With `Fc1ccc2c(/C=C/c3cccnc3)c[nH]c2c1` the pKa was 5.3.
With `O=S(=O)(c1ccccc1)n1cc(-c2cccc3nccn23)c2ccccc21` the pKa was 6.4.
Work on `Cc1cc(C)nc(N2CCC3(CCCN(Cc4nn(C)cc4-c4ccccc4)C3=O)CC2)n1` yielded a pKa of 4.75.
Work on `Cc1cc(C(=O)C[NH+]2CCCC2)c(C)n1-c1ccc(F)cc1` yielded a pKa of 9.
`Cc1csc2ncnc(NCCc3ccc(Cl)cc3)c12` showed a pKa of 3.9.
Work on `COc1ccc2c(c1)C[NH+](C)CCS2` yielded a pKa of 7.5.
`CS(=O)(=O)c1ccc(-c2cnc(N)c(-c3ccc(C(F)(F)F)nc3)c2)cc1` showed a pKa of 4.8.
`Nc1nccc(N2CCc3ccc(Br)cc32)n1` gave a pKa of 6.9.
`Clc1ccc2c(c1)[NH+]=C(N1CCCCC1)c1ccccc1N2` gave a pKa of 7.2.
With `Nc1ccc(-c2cc3ccccc3oc2=O)cc1` the pKa was 3.9.
`O=C1CCCC2(CCN(c3cnc4ccccc4n3)CC2)N1Cc1c[nH]c2ccccc12` gave a pKa of 3.3.
In the case of `c1ccc(N2CC[NH2+]CC2)cc1`, the pKa is reported as 9.
Work on `CCc1ncnc(NC(CC)c2ccc(Oc3ccc(F)cc3)cc2)c1Br` (configuration not stated) yielded a pKa of 4.3.
`COc1cc2c(cc1OC)CN(c1cc(N)c3cc(OC)c(OC)cc3[nH+]1)CC2` gave a pKa of 8.9.
`CCNC(=O)OC1CCN(c2nncc3cc(OC)c(OC)cc23)CC1` showed a pKa of 5.4.
With `COc1ccc(Nc2ccc3ccccc3n2)cc1` the pKa was 6.5.
`Nc1ncnc2ccc(-c3cccc(F)c3)nc12` gave a pKa of 4.7.
In the case of `N#Cc1c(-c2ccc(Cl)cc2)nc(SCC(=O)Nc2ccc(Cl)cc2)[nH]c1=O`, the pKa is reported as 3.7.
For `O=C1N(Cc2c[nH]c3ccccc23)CCCC12CCN(c1cnc3ccccc3n1)CC2`, the pKa was 3.9.
Compound `N#Cc1cnc(NC(=O)Nc2ccc(Cl)c(Cl)c2)s1` has a pKa of 7.5.
For `O=C1N(Cc2cccc3[nH]ccc23)CCCC12CCN(c1cnc3ccccc3n1)CC2`, the pKa was 3.75.
Work on `O=C([O-])c1ccc(-c2nn(C(=O)c3c(Cl)cccc3Cl)c3ccccc23)cc1` yielded a pKa of 3.2.
In the case of `N#Cc1cccc(Nc2ccccc2C(=O)[O-])c1`, the pKa is reported as 3.9.
For `Cc1cc(C)c2cc(C(=O)NC3CC[NH+](C)CC3)[nH]c2c1`, the pKa was 8.5.
With `O=C([O-])c1ccc(NCc2cccc(Oc3ccccc3)c2)cn1` the pKa was 4.45.
`Cc1ccc(NC(=O)c2cccc(C(C)(C)C#N)c2)cc1Nc1ccc2ncn(C)c(=O)c2c1` gave a pKa of 3.6.
For `Cc1ccc(OC(C)(C)C(=O)N[C@@H](C)[C@@H](Cc2ccc(OCCF)cc2)c2cccc(C#N)c2)nc1`, the pKa was 2.7.

Remark: another data set of the same source
With `Cc1ncccc1Oc1ncnc(OC2CCN(C(=O)OC(C)C)CC2)c1C` the pKa was 4.18.
Compound `CC(=O)Nc1cc(Cl)ccc1/C=C/C(=O)N1CC[NH+](Cc2ccc(F)cc2)C[C@H]1C` has a pKa of 5.9.
Compound `Cc1ccc2c(=O)c3cccc(CC(=O)[O-])c3oc2c1C` has a pKa of 3.8.
In the case of `CC(C)n1c(/C=C/[C@H](O)C[C@H](O)CC(=O)[O-])c(-c2ccc(F)cc2)c2ccccc21`, the pKa is reported as 4.5.
With `CN(n1c(=O)[nH]c2cc(Cl)ccc2c1=O)S(C)(=O)=O` the pKa was 8.4.
Work on `COc1cc(C(C)O)ccc1OCCC[NH+]1CCC(c2noc3cc(F)ccc23)CC1` (configuration not stated) yielded a pKa of 8.25.
With `C/C(=C\c1cc(C)ccn1)[C@@H]1C[C@@H]2O[C@]2(C)CCC[C@H](C)[C@H](O)[C@@H](C)C(=O)C(C)(C)[C@@H](O)CC(=O)O1` the pKa was 5.5.
For `Cc1nc2ccccn2c1C(=O)NCc1ccc(-c2ccccc2)cc1`, the pKa was 4.7.
`Cc1ccc(-c2ccc3c(c2)C=C(C(=O)Nc2ccc(C[NH+](C)C4CCOCC4)cc2)CCC3)cc1` gave a pKa of 8.3.
In the case of `CS(=O)(=O)Nn1c(=O)[nH]c2cc(C(F)(F)F)c(N3CCCOCC3)cc2c1=O`, the pKa is reported as 8.4.
Compound `CS(=O)(=O)Nn1c(=O)[nH]c2cc(C(F)(F)F)c(N)cc2c1=O` has a pKa of 8.6.
With `OCCn1cc(-c2cnc3nnn(Cc4ccc5ncccc5c4)c3n2)cn1` the pKa was 4.6.
In the case of `CCCCC[C@H](O)CC[C@@H]1[C@H]2Cc3cccc(OCC(=O)[O-])c3C[C@H]2C[C@H]1O`, the pKa is reported as 3.37.
`CCC1CCCCN1C(=O)c1cnc(Nc2ccc(C)nc2)c(Cl)c1` (configuration not stated) gave a pKa of 5.3.
`Cc1ccnc(N2CCC3(CCCN(Cc4c[nH]c5ccccc45)C3=O)CC2)n1` showed a pKa of 4.2.
Work on `Cn1c(N)nc2ccccc2c1=O` yielded a pKa of 5.2.
In the case of `C[NH+](CCC(=O)N1CCN(c2ccc(F)c(F)c2)CC1)CCC1c2ccccc2-c2ccccc21`, the pKa is reported as 7.8.
Work on `COc1ccc(OC)c(CNc2ccc3nc(N)nc(N)c3c2Cl)c1` yielded a pKa of 7.1.
`Cc1nc(N2CCN(CC3CC3)C2=O)sc1C(=O)NCc1cccnc1` showed a pKa of 5.
`CN1C(=O)N(C[C@H](C(=O)NO)[C@@H](CC2CCCC2)C(=O)N2CCCCC2)C(=O)C1(C)C` gave a pKa of 9.01.
Compound `CC(C)[NH+](CCc1c(C(C)(C)O)[nH]c2ccccc12)Cc1ccc(CCC(=O)N=O)cc1` has a pKa of 9.01.
Compound `CC(C)Cn1cnc2c(N)nc3ccccc3c21` has a pKa of 7.24.
`O=C1c2ccccc2-[n+]2ccc3c([nH]c4ccccc43)c21` gave a pKa of 8.7.
Work on `COc1ccc(-c2ccc(C(=O)Nc3ccc4c(c3)CCC(C[NH+](C)C)C4)cc2)cc1` (configuration not stated) yielded a pKa of 9.1.
Compound `C[NH+](CCC(=O)N1CCN(c2ccc(F)c(F)c2)CC1)CCC1c2ccccc2Oc2ccccc21` has a pKa of 7.9.

Reference: the pKa sets of Baltruschat and Czodrowski (2020)
